Article PMC6728334 (Scientific Reports, 2019)
Where “and” joins values, the source holds several entries; their conditions need not be identical. Equal values may be shown once. Entries after “also recorded” stand apart in the source; their conditions may differ. Read-outs that look alike come from different tables or passages of the source.

Assays:
[1] = test system: PCNA ubiquitination (RFC, Uba1, Rad6, Rad18, PCNA, ubiquitin); experiment: Reconstituted PCNA ubiquitination cascade, Western blot quantitation; type: biochemical, human; conditions: for IC50: 15 min preincubation, 2 h with ATP, 2% DMSO, nonlinear regression, read-out: IC50 for inhibition of PCNA ubiquitination; for Activity in the PCNA ubiquitination assay (in words): up to 500 μM
Procedure: The PCNA loading and ubiquitination cascade was reconstituted in 96-well white round-bottom polypropylene plates (Greiner) in a buffer consisting of 40 mM Tris-HCl, pH 7.5, 8 mM MgCl2, and 10% glycerol with 2.5 nM nicked circular pUC19, 50 nM RFC, 50 nM Uba1, 250 nM Rad6–Rad18 dimer, 50 nM FLAG-PCNA, and 250 nM biotin-ubiquitin (final concentrations). Compounds were added to the samples, with preincubation for 15 min at 25 °C before addition of ATP to a final concentration of 2 mM (to initiate the reaction cascade), followed by incubation for 2 h at 25 °C. The reactions were then terminated by addition of EDTA to 20 mM for Alpha assays or Laemmli sample buffer for Western blot analyses. For Alpha assays, reaction mixtures were diluted in buffer containing streptavidin-conjugated donor beads and anti-FLAG antibody-conjugated acceptor beads in opaque white microplates under low-light conditions, as recommended by the Alpha bead manufacturer, PerkinElmer. The plates were read on a Tecan Spark microplate reader at 23 °C. For Western blot analyses, FLAG-PCNA was detected with anti-FLAG antibody, and quantitations from the Western blot images was performed with NIH ImageJ software[74] and then analyzed with GraphPad Prism software.

HEK 293FT cells = experiment: Cell survival, Alamar Blue (resazurin) assay; type: cell-based, human; conditions: for IC50 / Activity on cell viability / survival (in words): 24-h treatment; for IC50: 2% DMSO, read-out: IC50 for inhibition of cell survival
Procedure: For cellular experiments, HEK 293FT cells (a fast-growing SV40 large T antigen-transformed strain of HEK 293 cells designed for enhanced transgene expression in transient transfections) were grown in growth medium consisting of Dulbecco’s modified Eagle’s medium (DMEM; Sigma-Aldrich), supplemented with 10% fetal bovine serum (FBS; Gibco) in a humified cell culture incubator at 37 °C with 5% CO2.
(§1) HEK 293FT cells were evaluated for survival following compound treatments by the Alamar Blue (resazurin) assay. Cells were plated onto 96-well plates at 4.8 × 10^4 cells/well in 0.5% FBS-containing DMEM at 37 °C and 5% CO2. After 24 h, compounds were added. After 24-h treatment, resazurin was added to a final concentration of 0.12 mM. Following 4-h incubation, conversion to the resorufin product was measured (with excitation at 542 nm and emission at 590 nm) on a fluorescence plate reader.

Uba1 [2] = biological target: T1, Uba1 (Homo sapiens, UniProt P22314); experiment: Uba1~ubiquitin thioester formation (Uba1, GST-ubiquitin, ATP; silver-stained gels); type: biochemical; conditions: for Activity in the Uba1~ubiquitin thioester formation assay (in words): up to 500 μM
T1 construct: His; host or cells: E. coli BL21(DE3)
T1 sequence (P22314 1-1058): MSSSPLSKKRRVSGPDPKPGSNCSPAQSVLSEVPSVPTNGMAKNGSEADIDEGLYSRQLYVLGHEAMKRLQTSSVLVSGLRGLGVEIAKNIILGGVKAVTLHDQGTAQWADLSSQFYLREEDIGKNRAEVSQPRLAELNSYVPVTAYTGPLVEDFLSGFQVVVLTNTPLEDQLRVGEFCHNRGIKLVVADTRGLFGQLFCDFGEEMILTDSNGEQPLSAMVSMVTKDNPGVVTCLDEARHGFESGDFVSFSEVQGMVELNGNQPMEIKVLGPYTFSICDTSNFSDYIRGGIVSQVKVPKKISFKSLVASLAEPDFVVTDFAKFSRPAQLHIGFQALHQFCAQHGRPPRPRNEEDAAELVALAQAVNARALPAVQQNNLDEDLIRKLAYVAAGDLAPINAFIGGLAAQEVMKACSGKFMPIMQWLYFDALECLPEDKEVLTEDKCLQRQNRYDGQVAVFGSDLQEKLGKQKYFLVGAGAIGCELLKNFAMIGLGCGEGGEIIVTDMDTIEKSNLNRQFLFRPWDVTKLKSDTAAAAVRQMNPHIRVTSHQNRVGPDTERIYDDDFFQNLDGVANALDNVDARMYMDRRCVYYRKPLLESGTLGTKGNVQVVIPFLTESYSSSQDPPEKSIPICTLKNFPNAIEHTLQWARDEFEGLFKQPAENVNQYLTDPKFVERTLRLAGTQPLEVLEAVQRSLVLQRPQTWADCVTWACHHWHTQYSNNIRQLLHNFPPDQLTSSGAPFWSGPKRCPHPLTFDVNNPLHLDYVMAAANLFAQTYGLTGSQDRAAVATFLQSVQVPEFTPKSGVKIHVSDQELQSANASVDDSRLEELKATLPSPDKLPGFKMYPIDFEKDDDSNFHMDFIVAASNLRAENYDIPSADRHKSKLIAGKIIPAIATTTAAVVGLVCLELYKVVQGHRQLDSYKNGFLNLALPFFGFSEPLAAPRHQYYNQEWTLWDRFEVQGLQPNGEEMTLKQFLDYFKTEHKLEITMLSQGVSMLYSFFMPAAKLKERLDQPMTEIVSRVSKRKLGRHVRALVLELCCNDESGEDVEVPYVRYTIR

[3] = test system: ubiquitin-overexpressing HEK 293 cells; experiment: Cell survival in ubiquitin-overexpressing cells vs empty vector-transfected control cells; type: cell-based, human; conditions: 24-h treatment at IC50 of each compound (Myr 3 mM, DM 650 μM; puromycin 1 and 2 μM)
Procedure: as §1
(§2) HEK 293FT cells (1.5 × 10^6) were plated onto 6-cm plates in 5 ml of DMEM with 10% FBS and allowed to grow for 24 h at 37 °C and 5% CO2. For transfections, 6 μg of plasmid DNA (empty vector containing FLAG-tag sequence only, FLAG-Uba1, or FLAG-ubiquitin) and 10 μl of Lipofectamine 2000 were used for each plate. The DNA and the reagent were diluted separately in 500 μl of Opti-MEM (Gibco), and each was mixed by vortexing. After 5-min incubation, the two tubes were combined and incubated for another 20 min. Prior to adding the transfection solution to the cells, the medium was replaced with 4 ml of Opti-MEM. The transfection solution was then added dropwise. After 3-h incubation, the medium was changed to 0.5% FBS-containing DMEM, and the cells were plated for cell survival experiments, as above.

[4] = test system: Uba1-overexpressing HEK 293 cells; experiment: Cell survival in Uba1-overexpressing cells vs empty vector-transfected control cells; type: cell-based, human; conditions: 24-h treatment at IC50 of each compound (Myr 3 mM, DM 650 μM; puromycin 1 and 2 μM)
Procedure: as §1, §2

Uba1 [5] = biological target: T1, Uba1; experiment: Reversibility: Uba1 preincubation, washout by centrifugal filtration, then PCNA ubiquitination; type: biochemical; conditions: 30 μM compound preincubated with Uba1 for 2 h, then washed out
Procedure: Samples were then transferred to YM-30 Microcon centrifugal concentrators (Merck Millipore), diluted in buffer (40 mM Tris-HCl, pH 7.5, 8 mM MgCl2, and 10% glycerol), then serially centrifuged with additions of buffer to the remaining retentate between each spin, for final dilutions of compounds to <0.05% of original concentrations. The resulting samples were then tested in PCNA ubiquitination reactions.

[6] = Uba1 preincubated with compound 15 min, 2 h reaction, 2% DMSO, read-out: IC50 for inhibition of Uba1~ubiquitin thioester formation

Compound | IC50 [1] [µM] | Activity in the PCNA ubiquitination assay (in words) [1] | Activity in the cell viability experiments at 500 μM (HEK 293FT cells; 24 h) | IC50 (HEK 293FT cells; Homo sapiens, HEK293FT, 24 h) [µM] | IC50 (Uba1 [2]; [6]) | Activity in the Uba1~ubiquitin thioester formation assay (in words) (Uba1 [2]) | Effect of ubiquitin overexpression on cell survival [3] | Activity on cell viability / survival (in words) (HEK 293FT cells) | IC50 (HEK 293FT cells) [µM] | Effect of Uba1 overexpression on cell survival [4] | IC50 (Uba1 [2]; Fig. 6, unit printed as M, read-out: IC50 (Uba1~Ub)) [µM] | Reversibility of inhibition of Uba1 and PCNA ubiquitination after washout (Uba1 [5]) | Uba1~ubiquitin thioester formation, ubiquitin alone preincubated with compound before Uba1 and ATP (Uba1 [2]; EGCG 10 μM, Myr 50 μM) | IC50 (Uba1 [2]; Fig. 6, read-out: IC50 (Uba1~Ub)) [µM]
Oc1cc(O)c2c(c1)O[C@H](c1ccc(O)c(O)c1)[C@@H](O)C2 [Cat, (+)-Catechin] | > 500 | inactive | only very weak activity | > 500 | > 500 µM | inactive | – | – | – | – | – | – | – | –
CCCCCCCCCCCCOC(=O)c1cc(O)c(O)c(O)c1 [DG, n-Dodecyl gallate] | 1.63 | active | – | 33.5 | 35 µM | active | Protects | active | 33.5 | Does not protect | – | – | – | –
O=C1c2c(O)cc(O)cc2O[C@H](c2cc(O)c(O)c(O)c2)[C@H]1O [DM, (+)-Dihydromyricetin] | 66.4 | active | only very weak activity | > 500 | 14.3 µM | – | Protects | very weak activity | – | Does not protect | 14.3 | – | – | –
Oc1cc(O)c2c(c1)O[C@H](c1ccc(O)c(O)c1)[C@H](O)C2 [EC, (–)-Epicatechin] | > 500 | inactive | only very weak activity | > 500 | > 500 µM | inactive | – | – | – | – | – | – | – | –
O=C(O[C@@H]1Cc2c(O)cc(O)cc2O[C@@H]1c1ccc(O)c(O)c1)c1cc(O)c(O)c(O)c1 [ECG, (–)-Epicatechin-3-gallate] | 0.537 | active | – | 262 | 4.2 µM and 4.22 µM | active | mitigated; also recorded: Protects | active | 262 | mitigated; also recorded: Protects | – | – | – | –
Oc1cc(O)c2c(c1)O[C@H](c1cc(O)c(O)c(O)c1)[C@H](O)C2 [EGC, (–)-Epigallocatechin] | 43.3 | weak activity | – | 176 | 7.6 µM and 7.58 µM | weak activity | not affected; also recorded: Does not protect | measurable cytostatic/cytotoxic activity | 176 | not affected; also recorded: Does not protect | – | – | – | –
O=C(O)c1cc(O)c(O)c(O)c1 [GA, Gallic acid] | > 500 | inactive | – | 241 | > 500 µM | inactive | not mitigated; also recorded: Does not protect | little effects | 241 | not mitigated; also recorded: Does not protect | – | – | – | –
O=c1c(O)c(-c2cc(O)c(O)c(O)c2)oc2cc(O)cc(O)c12 [Myr, Myricetin] | 1.21 | active | only very weak activity | > 500 | 0.721 µM | active | Protects | very weak activity | – | Protects | – | reversible | resulted in inhibition | 0.721
CCCCCCCCOC(=O)c1cc(O)c(O)c(O)c1 [OG, n-Octyl gallate] | 10.3 | active | – | 38.7 | 80.6 µM | active | Protects | active | – | Protects | – | – | – | –
CCCOC(=O)c1cc(O)c(O)c(O)c1 [PG, n-Propyl gallate] | > 500 | inactive | – | 176 | > 500 µM | inactive | not mitigated; also recorded: Does not protect | little effects | 176 | not mitigated; also recorded: Does not protect | – | – | – | –
COc1ccc(C[C@H](N)C(=O)N[C@H]2[C@@H](O)[C@H](n3cnc4c(N(C)C)ncnc43)O[C@@H]2CO)cc1 [puromycin, reference compound] | – | – | – | – | – | – | no differences | – | – | no differences | – | – | – | –
